How the values were obtained:
barnyardgrass [1] = test: Test C postemergence; format: in vivo, Echinochloa crus-galli; conditions: Echinochloa crus-galli, post-emergence
In short: (§1)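 Plants were kept under greenhouse conditions for 13–15 days following spray. Pre-emergent application went to soil (loam–sand), post-emergent to foliage at 1–4 leaves. Evaluation: visual, percent control against untreated checks.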

galium = test: Test C postemergence; format: in vivo, Galium aparine; conditions: Galium, post-emergence
In short: as §1

giant foxtail [2] = test: Test A preemergence; format: in vivo, Setaria faberii; conditions: Setaria faberi, pre-emergence, 240 h
In short: (§2)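 Injury scores run from 0, no effect, to 100, complete control, judged by eye against untreated plants roughly 10 days after treatment. Chemicals carried a surfactant in a non-phytotoxic solvent and went onto loam–sand soil preemergence or onto one- to two-leaf seedlings postemergence.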

wheat, winter = test: Test C postemergence; format: in vivo, Triticum aestivum; conditions: Triticum aestivum, post-emergence
In short: as §1

rice = test: Test B flooded paddy test; format: in vivo, Oryza sativa; conditions: Oryza sativa; Flood, 250 g ai/ha; 0 to 100 scale where 0 is no effect and 100 is complete control; read-out: Plant response rating, Rice
In short: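 Evaluation is visual, against untreated controls, 13 to 15 days after treatment. Before treatment, plants reached the 2-leaf stage; pots were then flooded 3 cm deep, compound was added to the water, and that level was maintained. Ratings run 0 to 100, with 100 meaning complete control.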

velvetleaf = test: Test A postemergence; format: in vivo, Abutilon theophrasti; conditions: Abutilon theophrasti, post-emergence, 240 h
In short: as §2

pigweed [3] = test: Test A preemergence; format: in vivo, Amaranthus retroflexus; conditions: Amaranthus retroflexus, pre-emergence
In short: as §2

barnyardgrass [4] = test: Test C preemergence; format: in vivo, Echinochloa crus-galli; conditions: Echinochloa crus-galli, pre-emergence
In short: as §1

Italian ryegrass = test: Test C postemergence; format: in vivo, Lolium multiflorum; conditions: Lolium multiflorum, post-emergence
In short: as §1

corn = test: Test C postemergence; format: in vivo, Zea mays; conditions: Zea mays, post-emergence
In short: as §1

kochia = test: Test C postemergence; format: in vivo, Kochia scoparia; conditions: Bassia scoparia, post-emergence
In short: as §1

giant foxtail [5] = test: Test C preemergence; format: in vivo, Setaria faberii; conditions: Setaria faberi, pre-emergence
In short: as §1

pigweed [6] = test: Test C preemergence; format: in vivo, Amaranthus retroflexus; conditions: Amaranthus retroflexus, pre-emergence
In short: as §1

yellow nutsedge [7] = test: Test C postemergence; format: in vivo, Cyperus esculentus; conditions: Cyperus, post-emergence
In short: as §1

yellow nutsedge [8] = test: Test C preemergence; format: in vivo, Cyperus esculentus; conditions: Cyperus, pre-emergence, preemergence, scale 0 (no effect) to 100 (complete control), read-out: Nutsedge, Yellow plant response rating
In short: as §1

N#Cc1cccc(Oc2ncc(Br)cn2)c1-n1cc(C(F)(F)F)cn1 [Compound 59, 3-[(5-bromo-2-pyrimidinyl)oxy]-2-[4-(trifluoromethyl)-1H-pyrazol-1-yl]benzonitrile]
pest or weed control at 125 g/ha (barnyardgrass [1]; 125 g ai/ha, postemergence, read-out: Plant response rating (0 to 100), Barnyardgrass): 10%
pest or weed control at 250 g/ha (barnyardgrass [1]; 250 g ai/ha, postemergence, read-out: Plant response rating (0 to 100), Barnyardgrass): 25%
pest or weed control at 31 g/ha (barnyardgrass [1]; Postemergence, 31 g ai/ha, scale 0 to 100 (0 no effect, 100 complete control), 13 to 15 days, read-out: Plant response rating, Barnyardgrass): 5%
pest or weed control at 62 g/ha (barnyardgrass [1]; Postemergence, 62 g ai/ha, scale 0 to 100 (0 no effect, 100 complete control), read-out: Plant response rating, Barnyardgrass): 5%
pest or weed control at 125 g/ha (galium; 125 g ai/ha, postemergence, read-out: Plant response rating (0 to 100), Galium): 90%
pest or weed control at 250 g/ha (galium; 250 g ai/ha, postemergence, read-out: Plant response rating (0 to 100), Galium): 90%
pest or weed control at 31 g/ha (galium; Postemergence, 31 g ai/ha, scale 0 to 100 (0 no effect, 100 complete control), 13 to 15 days, read-out: Plant response rating, Galium): 65%
pest or weed control at 62 g/ha (galium; Postemergence, 62 g ai/ha, scale 0 to 100 (0 no effect, 100 complete control), read-out: Plant response rating, Galium): 80%
pest or weed control at 125 g/ha (giant foxtail [2]; 125 g ai/ha, 0 to 100 scale where 0 is no effect and 100 is complete control, read-out: Plant response rating, Foxtail, Giant): 100%
pest or weed control at 500 g/ha (giant foxtail [2]; 500 g ai/ha, 0 to 100 scale, 0 no effect, 100 complete control, approx. 10 days, read-out: Foxtail, Giant plant response rating): 100%
plant injury at 125 g/ha (wheat, winter; 125 g ai/ha, postemergence, read-out: Plant response rating (0 to 100), Wheat): 20%
plant injury at 250 g/ha (wheat, winter; 250 g ai/ha, postemergence, read-out: Plant response rating (0 to 100), Wheat): 20%
plant injury at 31 g/ha (wheat, winter; Postemergence, 31 g ai/ha, scale 0 to 100 (0 no effect, 100 complete control), 13 to 15 days, read-out: Plant response rating, Wheat): 5%
plant injury at 62 g/ha (wheat, winter; Postemergence, 62 g ai/ha, scale 0 to 100 (0 no effect, 100 complete control), read-out: Plant response rating, Wheat): 5%
plant injury at 250 g/ha (rice): 20%
pest or weed control at 125 g/ha (velvetleaf; 125 g ai/ha, 0 to 100 scale where 0 is no effect and 100 is complete control, read-out: Plant response rating, Velvetleaf): 100%
pest or weed control at 500 g/ha (velvetleaf; 500 g ai/ha, 0 to 100 scale, 0 no effect, 100 complete control, read-out: Plant response rating Velvetleaf): 100%
pest or weed control at 125 g/ha (pigweed [3]; 125 g ai/ha, 0 to 100 scale where 0 is no effect and 100 is complete control, read-out: Plant response rating, Pigweed): 100%
pest or weed control at 500 g/ha (pigweed [3]; 240 h, 500 g ai/ha, 0 to 100 scale, 0 no effect, 100 complete control, approx. 10 days, read-out: Pigweed plant response rating): 100%
pest or weed control at 62 g/ha (barnyardgrass [4]; 62 g ai/ha, preemergence, scale 0 (no effect) to 100 (complete control), read-out: Barnyardgrass plant response rating): 100%
pest or weed control at 125 g/ha (barnyardgrass [4]; 125 g ai/ha, preemergence, scale 0 (no effect) to 100 (complete control), read-out: Barnyardgrass plant response rating): 100%
pest or weed control at 250 g/ha (barnyardgrass [4]; 250 g ai/ha, preemergence, scale 0 (no effect) to 100 (complete control), read-out: Barnyardgrass plant response rating): 100%
pest or weed control at 31 g/ha (barnyardgrass [4]; Preemergence, 31 g ai/ha, scale 0 to 100, 0 no effect, 100 complete control, read-out: Plant response rating, Barnyardgrass): 80%
pest or weed control at 125 g/ha (Italian ryegrass; 125 g ai/ha, postemergence, read-out: Plant response rating (0 to 100), Ryegrass, Italian): 10%
pest or weed control at 250 g/ha (Italian ryegrass; 250 g ai/ha, postemergence, read-out: Plant response rating (0 to 100), Ryegrass, Italian): 30%
pest or weed control at 31 g/ha (Italian ryegrass; Postemergence, 31 g ai/ha, scale 0 to 100 (0 no effect, 100 complete control), 13 to 15 days, read-out: Plant response rating, Ryegrass, Italian): 5%
pest or weed control at 62 g/ha (Italian ryegrass; Postemergence, 62 g ai/ha, scale 0 to 100 (0 no effect, 100 complete control), read-out: Plant response rating, Ryegrass, Italian): 10%
plant injury at 125 g/ha (corn; 125 g ai/ha, postemergence, read-out: Plant response rating (0 to 100), Corn): 15%
plant injury at 250 g/ha (corn; 250 g ai/ha, postemergence, read-out: Plant response rating (0 to 100), Corn): 20%
Corn plant response rating (crop injury, 0 = no effect, 100 = complete kill) at 31 g/ha (corn; Postemergence, 31 g ai/ha, scale 0 to 100 (0 no effect, 100 complete control), 13 to 15 days): 10%
Corn plant response rating (crop injury, 0 = no effect, 100 = complete kill) at 62 g/ha (corn; Postemergence, 62 g ai/ha, scale 0 to 100 (0 no effect, 100 complete control)): 15%
pest or weed control at 125 g/ha (kochia; 125 g ai/ha, postemergence, read-out: Plant response rating (0 to 100), Kochia): 100%
pest or weed control at 250 g/ha (kochia; 250 g ai/ha, postemergence, read-out: Plant response rating (0 to 100), Kochia): 100%
pest or weed control at 31 g/ha (kochia; Postemergence, 31 g ai/ha, scale 0 to 100 (0 no effect, 100 complete control), 13 to 15 days, read-out: Plant response rating, Kochia): 95%
pest or weed control at 62 g/ha (kochia; Postemergence, 62 g ai/ha, scale 0 to 100 (0 no effect, 100 complete control), read-out: Plant response rating, Kochia): 100%
pest or weed control at 62 g/ha (giant foxtail [5]; 62 g ai/ha, preemergence, scale 0 (no effect) to 100 (complete control), read-out: Foxtail, Giant plant response rating): 98%
pest or weed control at 125 g/ha (giant foxtail [5]; 125 g ai/ha, preemergence, scale 0 (no effect) to 100 (complete control), read-out: Foxtail, Giant plant response rating): 100%
pest or weed control at 250 g/ha (giant foxtail [5]; 250 g ai/ha, preemergence, scale 0 (no effect) to 100 (complete control), read-out: Foxtail, Giant plant response rating): 100%
pest or weed control at 31 g/ha (giant foxtail [5]; Preemergence, 31 g ai/ha, scale 0 to 100, 0 no effect, 100 complete control, read-out: Plant response rating, Foxtail, Giant): 95%
pest or weed control at 62 g/ha (pigweed [6]; 62 g ai/ha, preemergence, scale 0 (no effect) to 100 (complete control), read-out: Pigweed plant response rating): 100%
pest or weed control at 125 g/ha (pigweed [6]; 125 g ai/ha, preemergence, scale 0 (no effect) to 100 (complete control), read-out: Pigweed plant response rating): 100%
pest or weed control at 250 g/ha (pigweed [6]; 250 g ai/ha, preemergence, scale 0 (no effect) to 100 (complete control), read-out: Pigweed plant response rating): 100%
pest or weed control at 31 g/ha (pigweed [6]; Preemergence, 31 g ai/ha, scale 0 to 100, 0 no effect, 100 complete control, read-out: Plant response rating, Pigweed): 100%
pest or weed control at 125 g/ha (yellow nutsedge [7]; 125 g ai/ha, postemergence, read-out: Plant response rating (0 to 100), Nutsedge, Yellow): 5%
pest or weed control at 250 g/ha (yellow nutsedge [7]; 250 g ai/ha, postemergence, read-out: Plant response rating (0 to 100), Nutsedge, Yellow): 10%
pest or weed control at 31 g/ha (yellow nutsedge [7]; Postemergence, 31 g ai/ha, scale 0 to 100 (0 no effect, 100 complete control), 13 to 15 days, read-out: Plant response rating, Nutsedge, Yellow): 0%
pest or weed control at 62 g/ha (yellow nutsedge [7]; Postemergence, 62 g ai/ha, scale 0 to 100 (0 no effect, 100 complete control), read-out: Plant response rating, Nutsedge, Yellow): 5%
pest or weed control at 62 g/ha (yellow nutsedge [8]; 62 g ai/ha): 65%
pest or weed control at 125 g/ha (yellow nutsedge [8]; 125 g ai/ha): 85%
pest or weed control at 250 g/ha (yellow nutsedge [8]; 250 g ai/ha): 90%
